Source: the COVID Moonshot data (paper PMC11187573), “Identification of SARS-CoV-2 Mpro inhibitors through deep reinforcement learning for de novo drug design and computational chemistry approaches” (RSC Medicinal Chemistry, 2024)

Experiments:
[1] = molecular target: SARS-CoV-2 Main Protease (SARS-CoV-2) (UniProt P0DTD1)
[2] = molecular target: SARS-CoV-2 Main Protease (SARS-CoV-2) (UniProt P0DTD1); remark: listed apart in the source

Structure (SMILES): C=CC(=O)N(c1ccc(C(C)(C)C)cc1)C(C(=O)Nc1c(C)cccc1CC)c1cccnc1 (stereo not given)
- inhibition ([1]; 50.0 µM): -3.74%
- inhibition ([2]; 20.0 µM): 0%
- inhibition ([2]; 50.0 µM): 0%
- relative solubility at 20 uM: 0.98
- relative solubility at 100 uM: 0.69

Structure (SMILES): COc1cccc(N2CCN(C(=O)c3cc(=O)[nH]c4ccccc34)CC2)c1
- inhibition ([1]; 20.0 µM): 78.5%
- inhibition ([1]; 50.0 µM): 90.8%
- IC50 [2]: 19.7 µM
- inhibition ([2]; 50.0 µM): 83.3%
- relative solubility at 20 uM: 0.99
- relative solubility at 100 uM: 0.95

Structure (SMILES): O=C(Nc1nncn1C1CC1)[C@H]1CCOc2ccc(Cl)cc21 (stereo in doubt)
- inhibition ([1]; 20.0 µM): -13.3%
- inhibition ([1]; 50.0 µM): -7.61%
- inhibition ([2]; 50.0 µM): -19.4%
- relative solubility at 20 uM: 1.01
- relative solubility at 100 uM: 1

Structure (SMILES): CC(=O)NCCc1c[nH]c2c(CN3CCN(C(=O)CCl)CC3)cccc12
- inhibition ([1]; 20.0 µM): 62.8%
- inhibition ([1]; 50.0 µM): 85.7%
- IC50 [2]: 11.5 µM
- inhibition ([2]; 50.0 µM): 100%
- relative solubility at 20 uM: 0.95
- relative solubility at 100 uM: 0.95

Structure (SMILES): C=CC(=O)N(c1ccc(C(F)(F)F)cc1)C(C(=O)Nc1ccc(OC)cc1C)c1cccnc1 (stereo not given)
- inhibition ([1]; 20.0 µM): 7.06%
- inhibition ([1]; 50.0 µM): 25.4%
- inhibition ([2]; 20.0 µM): 11%
- relative solubility at 20 uM: 0.95
- relative solubility at 100 uM: 0.62

Structure (SMILES): C=CC(=O)N(c1ccc(C(C)(C)C)cc1)C(C(=O)NCC1CCCO1)c1cccnc1 (stereo not given)
- inhibition ([1]; 20.0 µM): 70.8%
- inhibition ([1]; 50.0 µM): 44.1%
- inhibition ([2]; 20.0 µM): 0%
- inhibition ([2]; 50.0 µM): 25.6%
- relative solubility at 20 uM: 1
- relative solubility at 100 uM: 0.99

Structure (SMILES): Cc1cccc(C)c1OCC(=O)NCCc1ccccc1
- inhibition ([1]; 20.0 µM): 1.78%
- inhibition ([1]; 50.0 µM): 7.25%
- inhibition ([2]; 20.0 µM): 0%
- inhibition ([2]; 50.0 µM): 0%
- relative solubility at 20 uM: 1
- relative solubility at 100 uM: 0.98

Structure (SMILES): O=C(Cc1cncnc1)Nc1cc(F)cc(OC2CC(=O)N2)c1 (stereo not given)
- inhibition ([1]; 20.0 µM): 52.8%
- inhibition ([1]; 50.0 µM): 87.8%
- inhibition ([2]; 50.0 µM): 45.7%
- relative solubility at 20 uM: 0.99
- relative solubility at 100 uM: 0.99

Structure (SMILES): O=C(NCCN1CCN(c2ccccc2)CC1)NCc1ccccn1
- inhibition ([1]; 50.0 µM): 12.5%
- inhibition ([2]; 20.0 µM): 0%
- inhibition ([2]; 50.0 µM): 0%
- relative solubility at 20 uM: 0.99
- relative solubility at 100 uM: 0.99

Structure (SMILES): O=C(COc1ccccc1)NCCc1ccccc1
- inhibition ([1]; 20.0 µM): -0.178%
- inhibition ([1]; 50.0 µM): -0.0738%
- inhibition ([2]; 20.0 µM): 0%
- inhibition ([2]; 50.0 µM): 0%
- relative solubility at 20 uM: 1
- relative solubility at 100 uM: 1

Structure (SMILES): COc1ccc(C(=O)Nc2cccc(/C=C3/C(=O)NC(=O)c4ccccc43)c2)cc1
- inhibition ([1]; 20.0 µM): -3.55%
- inhibition ([1]; 50.0 µM): -22.9%
- inhibition ([2]; 50.0 µM): 34.2%
- relative solubility at 20 uM: 0.48
- relative solubility at 100 uM: 0.54

Structure (SMILES): Cc1cccc(CS(=O)(=O)N2CCC(C(N)=O)CC2)c1
- inhibition ([1]; 20.0 µM): -20.4%
- inhibition ([1]; 50.0 µM): 0.138%
- inhibition ([2]; 50.0 µM): 0%
- relative solubility at 20 uM: 1.01
- relative solubility at 100 uM: 1.01

Structure (SMILES): CC(C)CCNC(=O)C(CC(C)C)NC(=O)C1OC1C(=O)O (stereo not given)
- inhibition ([1]; 20.0 µM): 0.736%
- inhibition ([1]; 50.0 µM): -2.95%
- inhibition ([2]; 50.0 µM): 0%
- relative solubility at 20 uM: 1
- relative solubility at 100 uM: 1

Structure (SMILES): C=CC(=O)N(c1ccc(SC)cc1)C(C(=O)Nc1ccc(Cl)cc1)c1cccnc1 (stereo not given)
- inhibition ([1]; 20.0 µM): 16.9%
- inhibition ([1]; 50.0 µM): 32.3%
- inhibition ([2]; 20.0 µM): 9.4%
- relative solubility at 20 uM: 0.81
- relative solubility at 100 uM: 0.64

Structure (SMILES): C=CC(=O)N(c1ccc(C(F)(F)F)cc1)C(C(=O)Nc1ccccc1Br)c1cccnc1 (stereo not given)
- inhibition ([1]; 20.0 µM): 15.6%
- inhibition ([1]; 50.0 µM): 22%
- inhibition ([2]; 20.0 µM): 9.6%
- relative solubility at 20 uM: 0.94
- relative solubility at 100 uM: 0.83

Structure (SMILES): CO[C@H](C)C(=O)N(C)c1cnccc1C (stereo in doubt)
- inhibition ([1]; 20.0 µM): 3.08%
- inhibition ([1]; 50.0 µM): 4.99%
- inhibition ([2]; 50.0 µM): 18%
- relative solubility at 20 uM: 1.01
- relative solubility at 100 uM: 0.99

Structure (SMILES): C=CC(=O)N(c1ccc(N(C)C)c(C)c1)C(C(=O)Nc1ccc(Cl)cc1)c1cccnc1 (stereo not given)
- inhibition ([1]; 20.0 µM): 4.26%
- inhibition ([1]; 50.0 µM): 12.1%
- inhibition ([2]; 20.0 µM): 0%
- relative solubility at 20 uM: 0.88
- relative solubility at 100 uM: 0.78

Structure (SMILES): N#Cc1ccnc(CNC(=O)Cc2c[nH]c3ncccc23)c1
- inhibition ([1]; 20.0 µM): -23.2%
- inhibition ([1]; 50.0 µM): -17.2%
- inhibition ([2]; 20.0 µM): 0%
- relative solubility at 20 uM: 0.97
- relative solubility at 100 uM: 0.98

Structure (SMILES): Cc1ccncc1NC(=O)Cc1cccc(C#N)c1
- inhibition ([1]; 20.0 µM): 33.6%
- inhibition ([1]; 50.0 µM): 58.3%
- IC50 [2]: 43.8 µM
- inhibition ([2]; 20.0 µM): 20.5%
- inhibition ([2]; 50.0 µM): 52.7%
- relative solubility at 20 uM: 1
- relative solubility at 100 uM: 1.01

Structure (SMILES): C=CC(=O)N(c1cc(C(C)(C)C)on1)C(C(=O)Nc1cccc(CC)c1)c1cccnc1 (stereo not given)
- inhibition ([1]; 20.0 µM): 15.6%
- inhibition ([1]; 50.0 µM): 43.1%
- inhibition ([2]; 20.0 µM): 6.79%
- relative solubility at 20 uM: 0.87
- relative solubility at 100 uM: 0.76

Structure (SMILES): NS(=O)(=O)c1ccc(N2CCC(CO)CC2)cc1
- inhibition ([1]; 20.0 µM): 3.95%
- inhibition ([1]; 50.0 µM): 7.03%
- inhibition ([2]; 20.0 µM): -1.13%
- inhibition ([2]; 50.0 µM): 2.83%
- relative solubility at 20 uM: 1
- relative solubility at 100 uM: 1

Structure (SMILES): Cc1nnc(CC(=O)Nc2cccnc2)s1
- inhibition ([1]; 20.0 µM): -1.16%
- inhibition ([1]; 50.0 µM): -0.0294%
- inhibition ([2]; 20.0 µM): -1.82%
- inhibition ([2]; 50.0 µM): 0%
- relative solubility at 20 uM: 1
- relative solubility at 100 uM: 0.99

Structure (SMILES): O=C(Nc1ccccc1)Nc1cnc2ccc([N+](=O)[O-])cc2n1
- inhibition ([1]; 20.0 µM): -15.3%
- inhibition ([1]; 50.0 µM): 9.06%
- inhibition ([2]; 50.0 µM): 0.772%
- relative solubility at 20 uM: 0.86
- relative solubility at 100 uM: 0.84

Structure (SMILES): C=CC(=O)N(c1ccc(N(C)C)c(C)c1)C(C(=O)Nc1ccc(OC)cc1C)c1cccnc1 (stereo not given)
- inhibition ([1]; 20.0 µM): 2.51%
- inhibition ([1]; 50.0 µM): 7.01%
- inhibition ([2]; 20.0 µM): 0%
- relative solubility at 20 uM: 0.87
- relative solubility at 100 uM: 0.83

Structure (SMILES): CN(C)c1ccc(N(Cc2ccsc2)C(=O)Cn2nnc3ccccc32)cc1
- inhibition ([1]; 20.0 µM): 84.4%
- inhibition ([1]; 50.0 µM): 90.5%
- IC50 [2]: 5.37 µM
- inhibition ([2]; 50.0 µM): 90.3%
- relative solubility at 20 uM: 0.92
- relative solubility at 100 uM: 0.48

Structure (SMILES): Cc1ccncc1NC(=O)CC(C)(C)NC(=O)c1cccc2[nH]ccc12
- inhibition ([1]; 50.0 µM): -10.4%
- inhibition ([2]; 20.0 µM): 0%
- inhibition ([2]; 50.0 µM): 0%
- relative solubility at 20 uM: 0.99
- relative solubility at 100 uM: 0.99

Structure (SMILES): C=CC(=O)N(c1ccc(S(F)(F)(F)(F)F)cc1)C(C(=O)Nc1ccc(OC)cc1C)c1cccnc1 (stereo not given)
- inhibition ([1]; 20.0 µM): 5.52%
- inhibition ([1]; 50.0 µM): 12.2%
- inhibition ([2]; 20.0 µM): 0%
- relative solubility at 20 uM: 0.92
- relative solubility at 100 uM: 0.75
